Values of other authors, collected in US20260306413A1, “COLONIC PURGATIVE TABLET AND COLONIC PURGATIVE COMPRISING SAME” (PHARMBIO KOREA CO., LTD., priority 2023, published 2026).

| complications (oral) | Compound | colon cleansing effect (compared to PEG) | side effects (frequency vs PEG) |
| --- | --- | --- | --- |
| acute phosphate nephropathy | O=P(O)(O)O [oral sodium phosphate, sodium phosphate] | – | – |
| – | Phosphate | colon cleansing effect in smaller doses compared to PEG | side effects such as abdominal inflation, pain, and dizziness at a similar frequency to PEG |
